Experimental data taken from patent US5516525A, “Vitamin D derivative feed compositions and methods of use” (University of Georgia Research Foundation, Inc., priority 1994, dated 1996).
Read-outs that look alike come from different tables or passages of the source.

What was measured:
tibial dyschondroplasia [1] = conditions: cited from earlier work; for tibial dyschondroplasia (effect of dietary factor): chickens, dietary level
calcium = conditions: in vivo; cited from earlier work
^47 Ca retention = experiment: 47Ca absorption and retention (Example 2); assay type: in vivo, chicken (Peterson X Arbor Acre cockerels); set-up: key to ^47 Ca intercept / Ca^47 Ret.: % of administered 47Ca retained (y-intercept of retention-vs-days plot); conditions: D3 […], derivatives 10 μg/kg feed; for ^47 Ca intercept / ^47 Ca slope: Study 2; for Ca^47 Ret. / Ca^47 slope: Study 3
Protocol: Absorption and retention of dietary calcium was measured by orally dosing chicks with ^47 Ca and then measuring the total body radioactive count, as described in Suso and Edwards, "A Study of Techniques for Measuring ^65 Zn Absorption and Biological Half-life in the Chicken," Poult. Sci. 47:991-999 (1968). Specifically, ten seven day old birds in one pen under the indicated dietary treatments were dosed orally with 0.5 milliliter of water solution containing 0.5 microcuries of ^47 Ca and 0.1 to 1.0 micrograms of calcium. The total body radioactive content of the individual chickens was determined immediately following dosing, and also on days 7, 9, 12 and 14 following dosing. A plot of percent administered ^47 Ca which was retained versus number of days yields a line which has a slope corresponding to the half-life of the radioactive calcium in the chicken, and a y-intercept that corresponds to the amount of calcium absorbed by the chicken. Effect of vitamin D3 derivatives on Tibial Dyschondroplasia.

tibial dyschondroplasia [2] = assay type: in vivo, chicken (Peterson X Arbor Acre cockerels); conditions: for #3/total / #3/No. / % N2 + 3 / % N3 / % #3: D3 […], derivatives 10 μg/kg feed; for incidence and severity of tibial dyschondroplasia: in words, Example 2; for #3/No. / % N2 + 3 / % N3: Study 3
Protocol: Deep irregularities are apparent.
The basal diet used is described above in Table 2. Disulfiram was added to the basal diet of some chickens as indicated in Table 10 at a level of 30 mg/kg of feed.
After the tibia was scored for incidence and severity of tibial dyschondroplasia, the left tibia was removed for a bone ash determination on the fat-free dried bone.

[3] = 16-day body weight and gain:feed (Example 2); assay type: in vivo, chicken (Peterson X Arbor Acre cockerels); conditions: D3 […], derivatives 10 μg/kg feed
Protocol: The basal diet used is described above in Table 2. Disulfiram was added to the basal diet of some chickens as indicated in Table 10 at a level of 30 mg/kg of feed. […]

[4] = 9-day body weight, feed consumption and gain:feed (Example 1); conditions: in words, Example 1
Protocol: Newly hatched Petersen X Arbor Acre cockerels obtained from a commercial hatchery were used. Animals were housed in electrically heated Petersime battery brooders with wire-mesh floors located in a room in which the temperature was maintained at 22° C., fluorescent lights were on 24 hours each day in the room and the cages, and sunlight was present during the day from large windows. No attempt was made to limit the natural production of vitamin D3. Feed and water were available to the chickens at all times.
Ten newly hatched birds were randomly placed in each section of the Petersime batteries until the birds were nine days old. The measurements described below were calculated on a pen basis; all statistical analyses were conducted on pen averages. Blood samples were taken by cardiac puncture with heparinized syringes from one randomly chosen bird from each pen on the ninth day before weighing the birds.
At nine days of age, pen body weights were obtained for all birds and their feed consumption was recorded. […] Briefly, using a three week old chicken as the reference animal, a score of zero indicates normal cartilage which is narrow with little irregularities. […] Deep irregularities are apparent. A score of three indicates a large mass of cartilage in the proximal end of the tibia. The birds were also scored for phosphorus deficient rickets at the same time they were scored for tibial dyschondroplasia. Chickens which had normal proliferating prehypertrophied zone and a lengthened metaphyseal primary spongiosa were classified as phosphorus deficient rickets. The left tibia was removed for bone ash determination on the fat-free bone.

bone ash = bone ash of left tibia (Example 1); conditions: in words
Excerpt: The left tibia was removed for bone ash determination on the fat-free bone.

[5] = Study 2, with disulfiram 30 mg/kg feed
[6] = Study 1, with disulfiram 30 mg/kg feed
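Wherever #3/No. is given: score 3 means a large cartilage mass in the proximal tibia.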
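Wherever #3/total is given: score 3 means a large cartilage mass in the proximal tibia.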
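Wherever % #3 is given: score 3 means a large cartilage mass in the proximal tibia.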
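Wherever % N3 is given: score 3 means a large cartilage mass in the proximal tibia.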

Compound | tibial dyschondroplasia (effect of dietary factor) (tibial dyschondroplasia [1]) | incidence and severity of tibial dyschondroplasia (tibial dyschondroplasia [2]) | Ca^47 Ret. (^47 Ca retention) | Ca^47 slope (^47 Ca retention) | #3/No. (tibial dyschondroplasia [2]) | % N2 + 3 (tibial dyschondroplasia [2]) | % N3 (tibial dyschondroplasia [2]) | #3/total (tibial dyschondroplasia [2]; Study 4) | % #3 (tibial dyschondroplasia [2]; Study 4) | 16 Day Wt. ([3]; Study 3) | Gain/feed ([3]; Study 3) | 16 Day wt. ([3]; Study 4) | Gain/feed ([3]; Study 4) | further results
calcium | retards development of the lesion | – | – | – | – | – | – | – | – | – | – | – | – | –
CN(C)C(=S)SSC(=S)N(C)C [thiruram, bis(dimethylthiocarbamyl)disulfide, reference compound] | causes tibial dyschondroplasia | – | – | – | – | – | – | – | – | – | – | – | – | calcium absorption / loss (calcium): rapid loss of intramuscularly-injected calcium
magnesium | decrease the incidence of tibial dyschondroplasia | – | – | – | – | – | – | – | – | – | – | – | – | –
C=C1CC[C@H](O)C/C1=C/C=C1\CCC[C@]2(C)[C@@H]([C@H](C)CCCC(C)(C)O)CC[C@@H]12 [25-OHD3, 25-hydroxycholecalciferol] | – | reduced the incidence of tibial dyschondroplasia | – | – | – | – | – | – | – | – | – | – | – | ^47 Ca intercept (^47 Ca retention; basal diet): 72; ^47 Ca intercept (^47 Ca retention; with disulfiram 30 mg/kg feed): 74; ^47 Ca slope (^47 Ca retention; with disulfiram 30 mg/kg feed): -1.67; #3/total (tibial dyschondroplasia [2]; Study 1, basal diet): 1/28; #3/total (tibial dyschondroplasia [2]; Study 2, basal diet): 7/30; #3/total (tibial dyschondroplasia [2]; [5]): 11/28; 16 Day wt. ([3]; Study 1, basal diet): 395; Gain:Feed ([3]; Study 1, basal diet): .667; 16 Day wt. [3, 6]: 398; Gain:Feed [3, 6]: .706; 16 day wt ([3]; Study 2, basal diet): 392; Gain:Feed ([3]; Study 2, basal diet): .713; 16 day wt [3, 5]: 395; Gain:Feed [3, 5]: .728
C=C1CC[C@H](O)C/C1=C/C=C1\CCC[C@]2(C)[C@@H]([C@H](C)CCCC(C)C)CC[C@@H]12 [D3, cholecalciferol, reference compound] | – | – | 75 | -1.13 | 13/59 | 34% | 22% | 20/58 | 35% | 434 | .709 | 383 | .701 | ^47 Ca intercept (^47 Ca retention; basal diet): 77; ^47 Ca slope (^47 Ca retention; basal diet): -1.88; ^47 Ca intercept (^47 Ca retention; with disulfiram 30 mg/kg feed): 72; ^47 Ca slope (^47 Ca retention; with disulfiram 30 mg/kg feed): -1.97; #3/total (tibial dyschondroplasia [2]; Study 1, basal diet): 4/27; #3/total (tibial dyschondroplasia [2]; [6]): 9/27; #3/total (tibial dyschondroplasia [2]; Study 2, basal diet): 5/29; #3/total (tibial dyschondroplasia [2]; [5]): 12/30; 16 Day wt. ([3]; Study 1, basal diet): 451; Gain:Feed ([3]; Study 1, basal diet): .734; 16 Day wt. [3, 6]: 432; Gain:Feed [3, 6]: .708; 16 day wt ([3]; Study 2, basal diet): 368; Gain:Feed ([3]; Study 2, basal diet): .647; 16 day wt [3, 5]: 374; Gain:Feed [3, 5]: .666
C=C1/C(=C\C=C2/CCC[C@]3(C)[C@@H]([C@H](C)CCC(O)C(C)(C)O)CC[C@@H]23)C[C@@H](O)C[C@@H]1O (stereo partly shown) [1,24,25-(OH)2 D3, 1,24,25-trihydroxycholecalciferol] | – | significant reduction in the incidence of tibial dyschondroplasia | 76 | -.77 | 6/60 | 22% | 10% | 8/57 | 14% | 428 | .688 | 376 | .681 | –
CCN(CC)C(=S)SSC(=S)N(CC)CC [Disulfiram, bis(diethylthiocarbamyl)disulfide, reference compound] | – | – | – | – | – | – | – | – | – | – | – | – | – | ^47 Ca intercept (^47 Ca retention; with disulfiram 30 mg/kg feed): 73; ^47 Ca slope (^47 Ca retention; with disulfiram 30 mg/kg feed): -1.59; #3/total (tibial dyschondroplasia [2]; [6]): 16/30; #3/total (tibial dyschondroplasia [2]; [5]): 14/28; calcium absorption / loss (calcium): lowers the absorption of calcium; 16 Day wt. [3, 6]: 433; Gain:Feed [3, 6]: .750; 16 day wt [3, 5]: 394; Gain:Feed [3, 5]: .671
C=C1/C(=C\C=C2/CCC[C@]3(C)[C@@H]([C@H](C)CCCC(C)C)CC[C@@H]23)C[C@@H](O)C[C@@H]1O [1-OHD3, 1-hydroxycholecalciferol] | – | significant reduction in the incidence of tibial dyschondroplasia | 75 | -.95 | 3/60 | 17% | 5% | 8/57 | 15% | 423 | .661 | 372 | .655 | nine day weight [4]: increased; bone ash (bone ash): increased
C=C1CC[C@H](O)C/C1=C/C=C1\CCC[C@]2(C)[C@@H]([C@H](C)CCC(O)C(C)(C)O)CC[C@@H]12 (stereo partly shown) [24,25-(OH)2 D3, 24,25-dihydroxycholecalciferol, reference compound] | – | not effective in preventing the development of tibial dyschondroplasia | 67 | -.77 | 17/59 | 53% | 29% | 25/56 | 46% | 424 | .696 | 351 | .663 | incidence of tibial dyschondroplasia (tibial dyschondroplasia [1]; 20 ng/day, Edwards, J. Nutr. 114:1001 (1984)): no effect on the incidence of tibial dyschondroplasia; nine day weight [4]: no effect; bone ash (bone ash): no effect
[2H]C([2H])([2H])C(O)(CCC[C@@H](C)[C@H]1CC[C@H]2/C(=C/C=C3/C[C@@H](O)C[C@H](O)C3=C)CCC[C@]12C)C([2H])([2H])[2H] [1,25-(OH)2-26,27[^1 H]6 D3, 1,25-dihydroxy-26,27-hexadeuterocholecalciferol] | – | significant reduction in the incidence of tibial dyschondroplasia | 80 | .15 | 0/60 | 8% | 0% | 4/58 | 7% | 422 | .687 | 360 | .646 | –
C=C1/C(=C\C=C2/CCC[C@]3(C)[C@@H]([C@H](C)CC[C@@H](F)C(C)(C)O)CC[C@@H]23)C[C@@H](O)C[C@@H]1O [1,25-(OH)2-24R-FD3, 1,25-dihydroxy-24-fluorocholecalciferol] | – | significant reduction in the incidence of tibial dyschondroplasia | 72 | -.47 | 3/60 | 15% | 5% | 9/56 | 16% | 413 | .663 | 360 | .661 | –
chloride | increased the incidence of the abnormality | – | – | – | – | – | – | – | – | – | – | – | – | –
